From patent publication US10696615B2, “Prenylated hydroxystilbenes” (The University of Sydney, priority 2011, dated 2020)

Columns and labels:
Assay type in all cases: cell-based, human
SNB-75 = test: NCI in vitro cancer screen, CNS Cancer; settings: SNB-75, CNS Cancer
NCI-H322M = test: NCI in vitro cancer screen, Non-Small Cell Lung Cancer; settings: Non-Small Cell Lung Cancer
T-47D = test: NCI in vitro cancer screen, Breast Cancer; settings: Breast Cancer
M14 = test: NCI in vitro cancer screen, Melanoma; settings: M14, Melanoma
RPMI-8226 = test: NCI in vitro cancer screen, Leukemia; settings: RPMI-8226, Leukemia
DU-145 = test: NCI in vitro cancer screen, Prostate Cancer; settings: DU-145, Prostate Cancer
COLO 205 = test: NCI in vitro cancer screen, Colon Cancer; settings: COLO 205, Colon Cancer
OVCAR-4 = test: NCI in vitro cancer screen, Ovarian Cancer; settings: OVCAR-4, Ovarian Cancer
ADR-RES (NCI/ADR-RES) = test: NCI in vitro cancer screen, Ovarian Cancer; settings: NCI/ADR-RES, Ovarian Cancer
HCT-116 = test: NCI in vitro cancer screen, Colon Cancer; settings: HCT-116, Colon Cancer
OVCAR-3 = test: NCI in vitro cancer screen, Ovarian Cancer; settings: OVCAR-3, Ovarian Cancer
OVCAR-5 = test: NCI in vitro cancer screen, Ovarian Cancer; settings: OVCAR-5, Ovarian Cancer
SK-MEL-2 = test: NCI in vitro cancer screen, Melanoma; settings: SK-MEL-2, Melanoma
ACHN = test: NCI in vitro cancer screen, Renal Cancer; settings: Renal Cancer
SF-268 = test: NCI in vitro cancer screen, CNS Cancer; settings: SF-268, CNS Cancer
EKVX = test: NCI in vitro cancer screen, Non-Small Cell Lung Cancer; settings: Non-Small Cell Lung Cancer
HCT-15 = test: NCI in vitro cancer screen, Colon Cancer; settings: HCT-15, Colon Cancer
HOP-62 = test: NCI in vitro cancer screen, Non-Small Cell Lung Cancer; settings: HOP-62, Non-Small Cell Lung Cancer
A549/ATCC = test: as above; settings: Non-Small Cell Lung Cancer
K-562 = test: NCI in vitro cancer screen, Leukemia; settings: K-562, Leukemia
HL-60 (TB) = test: NCI in vitro cancer screen, Leukemia; settings: HL-60(TB), Leukemia
UACC-62 = test: NCI in vitro cancer screen, Melanoma; settings: UACC-62, Melanoma
HS 578T = test: NCI in vitro cancer screen, Breast Cancer; settings: Breast Cancer
HT29 = test: NCI in vitro cancer screen, Colon Cancer; settings: HT29, Colon Cancer
786-0 = test: NCI in vitro cancer screen, Renal Cancer; settings: 786-0, Renal Cancer
SK-MEL-5 = test: NCI in vitro cancer screen, Melanoma; settings: SK-MEL-5, Melanoma
RXF-393 = test: NCI in vitro cancer screen, Renal Cancer; settings: RXF 393, Renal Cancer
OVCAR-8 = test: NCI in vitro cancer screen, Ovarian Cancer; settings: OVCAR-8, Ovarian Cancer
HCC-2998 = test: NCI in vitro cancer screen, Colon Cancer; settings: HCC-2998, Colon Cancer
SK-OV-3 = test: NCI in vitro cancer screen, Ovarian Cancer; settings: SK-OV-3, Ovarian Cancer
[1] = Homo sapiens, read-out: LC50 (the source's name)

`CC(C)=CCOc1cc(O)cc(/C=C/c2ccc(O)c(O)c2)c1CC=C(C)C` [USYDS14, (E)-2-(3-methyl-2-buten-1-yl)-3-(3-methyl-2-butenyloxy)-3′,4′,5-trihydroxystilbene] gave a GI50 (SNB-75; Homo sapiens) of 1790 nM, a CC50 (SNB-75; [1]) of 29.3 µM and a TGI (SNB-75) of 7.8 µM. For the same compound, the GI50 (NCI-H322M; Homo sapiens) was 12.5 µM, the LC50 (50% lethal concentration) (NCI-H322M; Homo sapiens) was 52.8 µM and the TGI (NCI-H322M) was 25.7 µM. For the same compound, the TGI (T-47D) was 7.84 µM, the GI50 (T-47D; Homo sapiens, T47D) was 2710 nM and the CC50 (T-47D; Homo sapiens, T47D, read-out: LC50 (the source's name)) was 61.8 µM. For the same compound, the GI50 (M14; Homo sapiens) was 2950 nM, the CC50 (M14; [1]) was 50 µM and the TGI (M14) was 13.6 µM. It also gave a GI50 (RPMI-8226; Homo sapiens) of 4.07 µM, a CC50 (RPMI-8226; [1]) of over 100 µM and a TGI (RPMI-8226) of 24.5 µM. The TGI (DU-145) was 21.1 µM, the GI50 (DU-145; Homo sapiens) was 8.2 µM and the CC50 (DU-145; [1]) was 47.5 µM. The TGI (COLO 205) was 28.5 µM, the GI50 (COLO 205; Homo sapiens) was 14.6 µM and the CC50 (COLO 205; [1]) was 55.7 µM. For the same compound, the GI50 (OVCAR-4; Homo sapiens) was 2980 nM, the CC50 (OVCAR-4; [1]) was 38.6 µM and the TGI (OVCAR-4) was 13.6 µM. It also gave a GI50 (ADR-RES (NCI/ADR-RES); Homo sapiens) of 780 nM, a CC50 (ADR-RES (NCI/ADR-RES); [1]) of 49.3 µM and a TGI (ADR-RES (NCI/ADR-RES)) of 11.4 µM. The TGI (HCT-116) was 16 µM, the GI50 (HCT-116; Homo sapiens) was 4.2 µM and the LC50 (concentration killing 50% of cells) (HCT-116; Homo sapiens) was 46.6 µM. It also gave a GI50 (OVCAR-3; Homo sapiens) of 3.52 µM, a CC50 (OVCAR-3; [1]) of 41.1 µM and a TGI (OVCAR-3) of 13.5 µM. The GI50 (OVCAR-5; Homo sapiens) was 12.4 µM, the CC50 (OVCAR-5; [1]) was 53.6 µM and the TGI (OVCAR-5) was 25.8 µM. The GI50 (SK-MEL-2; Homo sapiens) was 3.72 µM, the LC50 (SK-MEL-2; Homo sapiens) was 41.2 µM and the TGI (SK-MEL-2) was 12.5 µM. For the same compound, the GI50 (ACHN; Homo sapiens) was 2980 nM, the CC50 (ACHN; [1]) was 36.5 µM and the TGI (ACHN) was 12.5 µM. It also gave a GI50 (SF-268; Homo sapiens) of 4.65 µM, a CC50 (SF-268; [1]) of 48.5 µM and a TGI (SF-268) of 17.8 µM. The GI50 (EKVX; Homo sapiens) was 6.45 µM, the CC50 (EKVX; [1]) was 51.7 µM and the TGI (EKVX) was 21.2 µM. It also gave a TGI (HCT-15) of 10.4 µM, a GI50 (HCT-15; Homo sapiens) of 2060 nM and a CC50 (HCT-15; [1]) of 43.3 µM. It also gave a TGI (HOP-62) of 3.77 µM, a GI50 (HOP-62; Homo sapiens) of 1430 nM and a CC50 (HOP-62; [1]) of 9.98 µM. It also gave a GI50 (A549/ATCC; Homo sapiens) of 4.33 µM, a CC50 (A549/ATCC; [1]) of 45.5 µM and a TGI (A549/ATCC) of 16.5 µM. The GI50 (K-562; Homo sapiens, K562) was 833 nM, the CC50 (K-562; Homo sapiens, K562, read-out: LC50 (the source's name)) was over 100 µM and the TGI (K-562) was 14.2 µM. It also gave a TGI (HL-60 (TB)) of 16.3 µM, a GI50 (HL-60 (TB); Homo sapiens) of 4.06 µM and a CC50 (HL-60 (TB); [1]) of over 100 µM. The GI50 (UACC-62; Homo sapiens) was 2610 nM, the CC50 (UACC-62; [1]) was 39.1 µM and the TGI (UACC-62) was 13.2 µM. For the same compound, the TGI (HS 578T) was 20.5 µM, the GI50 (HS 578T; Homo sapiens) was 2710 nM and the CC50 (HS 578T; [1]) was over 100 µM. The TGI (HT29) was 29.1 µM, the GI50 (HT29; Homo sapiens, HT-29) was 14 µM and the CC50 (HT29; Homo sapiens, HT-29, read-out: LC50 (the source's name)) was 60.9 µM. It also gave a TGI (786-0) of 11.8 µM, a GI50 (786-0; Homo sapiens) of 3.44 µM and an LC50 (50% net cell kill) (786-0; Homo sapiens) of 40 µM. For the same compound, the GI50 (SK-MEL-5; Homo sapiens) was 554 nM, the CC50 (SK-MEL-5; [1]) was 4.46 µM and the TGI (SK-MEL-5) was 1.87 µM. For the same compound, the GI50 (RXF-393; Homo sapiens) was 1070 nM, the CC50 (RXF-393; [1]) was 14.8 µM and the TGI (RXF-393) was 3.58 µM. For the same compound, the GI50 (OVCAR-8; Homo sapiens) was 3.59 µM, the CC50 (OVCAR-8; [1]) was 64.9 µM and the TGI (OVCAR-8) was 15.6 µM. For the same compound, the TGI (HCC-2998) was 10.6 µM, the GI50 (HCC-2998; Homo sapiens) was 2900 nM and the CC50 (HCC-2998; [1]) was 40.7 µM. For the same compound, the GI50 (SK-OV-3; Homo sapiens) was 2850 nM, the CC50 (SK-OV-3; [1]) was 37.2 µM and the TGI (SK-OV-3) was 13.7 µM.
